Laboratory results from US5723496A, “Method for prevention and treatment of harmful effects of intracellular acidosis” (priority 1995, dated 1998).
Values joined by “and” are separate entries in the source; they are usually repeats but may differ in a detail not shown here. Identical values can stand only once. “Also recorded” adds a separate entry of the source. Counter-ions that a name gives are not always drawn.

What was measured:
pKa determination = type: physicochemical; details: read-out: pKa value (guanidino/amidino moiety)
Method: The mixture was heated to 60° C. and maintained at this temperature until evolution of gas ceased. The solution was cooled on ice until crystals were formed. Following the filtration, the crystals were dissolved in a minimum of distilled water and were recrystallized three times from water. Purity of GES was confirmed by proton NMR spectroscopy at 500 MHz (GE Omega-500). The pKa value of the amino moiety of GES was determined to be 12.48
GES was prepared as described above. Taurine and methyl isothiopseudourea were purchased from Sigma (St. Louis, Mo.). […] The mixture was heated to 60° C. and maintained at this temperature until evolution of gas ceased. The solution was cooled on ice to crystalize GES, and filtered. The crystals were dissolved in a minimal amount of distilled water and then recrystallized three times from water. The purity of GES was confirmed by proton NMR spectroscopy at 500 MHz (GE Omega-500). The pKa value of the amidino moiety of GES was determined to be 12.48.

[1] = tested on: taurine transport into the brain; details: sulfate; cited from earlier work
[2] = tested on: adult mice exposed to anoxia; experiment: survival of adult mice exposed to anoxia; type: in vivo, Adult Swiss mice; set-up: mortality, 2.5 minutes of anoxia / protection against 2.5 minutes anoxia: concentration or dose not given beside the values; details: for protection against anoxia / survival (in words): sulfate
Method: Adult Swiss mice (BK-1 males, 20 g) purchased from Bantin & Kingman, Fremont, Calif. were used. Each batch consisted of 10 mice. Within each batch five mice were selected randomly as experimental animals and the remaining five as controls. Experimental mice received daily intraperitoneal injections of 0.25 ml of GES (50 mg/ml) for 14 days.
At day 14, all mice within the same batch (5 experimental and 5 each of the […]) were placed in a specially designed chamber (26.5×24.5×21.0 cm). Anoxia/hypoxia was produced by infusion of pure nitrogen gas ([…]) into the chamber for 2.5 or 2.75 minutes. Anoxia/hypoxia was reversed immediately after these intervals by removing the chamber and placing the mice in a room air environment.
The results are shown in FIG. 1 and discussed in detail above.

gerbil brain = experiment: intracellular pH of gerbil brain (31P NMR); type: in vivo; details: mean and standard deviation; p<0.05 (t-test) vs saline 7.17; sulfate
Method: Intracellular pH measurement of gerbil brain was performed non-invasively using ^31 P nuclear magnetic resonance (NMR) in vivo spectroscopy. AGE Omega CSI-7T (useful bore 120 mm, horizontal, 7T) was used.
Gerbils were divided into […] of 7 animals each. Control group received saline. Saline ischemia group received saline. GES group received GES. Gerbils were anesthetized with pentobarbital, 50 mg/kg. Gerbils were held in a padded holder which was placed in the probe chamber containing a one turn round surface coil (5 mm diameter) tunable to the resonance frequency of proton and ^31 P. To avoid signal contamination, the scalp and temporal muscle were retracted. The body temperature was kept at 37° C. using a non-magnetic heating pad. Field homogeneity was maximized by skimming on tissue water proton signals. ^31 P spectra were obtained using a one pulse sequence at 121.67 MHz with a spectral width of 10K and stored into 4K memory blocks (recycle time 2.7 sec). The broad resonance with short T2 on ^31 P spectra was removed by the convolution difference technique. Line broadening of 30 Hz was applied as noise filter.

CA1 neurons = experiment: neuronal density in CA1 region, gerbil forebrain ischemia model; type: in vivo
Method: The gerbil forebrain ischemia model of Kirino (REFERENCE, please) was employed as follows.
Animals were divided into 4 groups. Two groups of 5 animals each served as control.
First control group was administered daily for fourteen days 0.25 ml of saline. No ischemia was induced.
Second control group was administered 0.25 ml of 625 mg/kg of GES daily for fourteen days. No ischemia was induced.
Third group of ten animals was control ischemia group. This group was administered with 0.25 ml of saline daily for 14 days. Then, the ischemia was induced.
Fourth group of 16 animals was administered 0.25 ml of 625 mg/kg of GES for 14 days, followed by induced ischemia.
Animals were anesthetized with 1% halothane, 70% nitrous oxide, and 29% oxygen. The subscalp and rectal temperature were monitored and kept constant at 37° C. using a controlled heating system starting 30 minutes prior to one hour after induction of ischemia. Ischemia in experimental groups (saline and GES ischemia groups) was induced by occlusion of the carotid arteries bilaterally for 5 minutes using small aneurysm clips. Animals in the two control groups (saline and GES controls) received sham surgery but no ischemia was induced.
Seven days after induced ischemia and recirculation, animals were perfused transcardially with 50 cc of normal saline followed by 500 cc of 5% paraformaldehyde in 0.1M phosphate buffer (pH=7.3), at 100 cm H2 O, under deep pentobarbital anesthesia. Brains were removed and fixed in the same buffered paraformaldehyde solution for 14 days. Sections (6 μm thick) containing the dorsal hippocampus at the level 1.4-1.7 mm posterior to the bregma were prepared on a cryostat from paraffin embedded brain. Sections were stained with hematoxylin and eosin and examined in a double blinded fashion. The number of viable neurons within the CA1 region was counted using an Olympus BH-2 microscope at ×400. The results represents the average of the counts.

N=C(N)NCCS(=O)(=O)O [GES, guanidinoethane sulfate]
pKa (pKa determination): 12.5
effect on taurine transport into the brain (in words) [1]: competitive inhibitor of taurine transport into the brain; also recorded: effectively competes with and inhibits taurine transport into the brain
mortality, 2.5 minutes of anoxia ([2]; 14 days i.p. pretreatment): zero
mortality, 2.75 minutes of anoxia ([2]; 14 days i.p. pretreatment): 20%
protection against 2.5 minutes anoxia ([2]; FIG. 1): 100%
protection against anoxia / survival (in words) ([2]; listed as sodium guanidinoethane sulfate): effectively prevent lactic acidosis caused by complete oxygen deficiency
protection against anoxia / survival (in words) [2]: more effective than pretreatment with taurine or saline; also recorded: enhance the survival rate of mice exposed to anoxia; also recorded: significantly enhances the survival rate of adult mice exposed to anoxia
intracellular pH of gerbil brain (gerbil brain): 7.26 and 7.25±0.07 and 7.25
neuroprotection of CA1 neurons (in words) (CA1 neurons; 7 days after 5 min bilateral carotid occlusion, sulfate): significant nueroprotection on CA1 neurons; also recorded: Significantly higher neuronal density
neuronal density in CA1 region, no ischemia (CA1 neurons; GES control group (n=5), sham surgery): 249 ± 9.4 /mm
CA1 neuronal density, ischemia (CA1 neurons; GES ischemia group): 61.1±55.11 /mm
neuronal density in CA1 region, ischemia (CA1 neurons; GES ischemia group (n=16), 5 min occlusion, 7 days, p<0.05): 61.1 ± 55.1 /mm
protective activity by CA1 neuronal density vs saline ischemia (CA1 neurons; in vivo): four times higher
